Experimental data from DBAASP.
≈ marks a conversion by molar mass, not a printed value.

Assays:
Assay in all cases: ≥ marks a high value that may be exact or a test limit, other limits are often not marked, values filed in µg/mL are converted to µM
[1] = tested on: Escherichia coli NCTC 10418
[2] = tested on: Candida albicans NCYC 1467
[3] = tested on: Staphylococcus aureus NCTC 10788
Escherichia coli UB1005 = tested on: Escherichia coli UB1005
[4] = tested on: Staphylococcus aureus ATCC 25923
[5] = tested on: Enterococcus faecalis ATCC 29212
[6] = tested on: Pseudomonas aeruginosa H103
[7] = tested on: Salmonella enterica serovar Typhimurium
[8] = tested on: Staphylococcus epidermidis
Candida albicans = tested on: Candida albicans
[9] = tested on: Bacillus subtilis KCTC 3068
[10] = tested on: Escherichia coli KCTC 1682
[11] = tested on: Salmonella typhimurium KCTC 1926
[12] = tested on: Staphylococcus epidermidis KCTC 1917
[13] = tested on: Pseudomonas aeruginosa KCTC 1637
[14] = tested on: Staphylococcus aureus KCTC 1621
[15] = tested on: Escherichia coli ATCC 25922
[16] = tested on: Pseudomonas aeruginosa PAO1
Staphylococcus aureus = tested on: Staphylococcus aureus
Enterococcus faecium = tested on: Enterococcus faecium
[17] = tested on: Salmonella enterica subsp. enterica serovar Pullorum C79-13
[18] = tested on: Staphylococcus aureus ATCC 29213
[19] = tested on: Salmonella enterica subsp. enterica serovar Typhimurium C77-31
[20] = tested on: Staphylococcus epidermidis ATCC 12228
Escherichia coli = tested on: Escherichia coli
Pseudomonas aeruginosa = tested on: Pseudomonas aeruginosa
Acinetobacter baumannii = tested on: Acinetobacter baumannii

An MIC [1] of 16 µM (≈ 42.4 µg/mL), an MIC [2] of 16 µM (≈ 42.4 µg/mL) and an MIC [3] of 8 µM (≈ 21.2 µg/mL) were found for `CC[C@H](C)[C@H](NC(=O)[C@H](CC(=O)O)NC(=O)[C@H](CCCCN)NC(=O)[C@H](Cc1c[nH]c2ccccc12)NC(=O)[C@H](CC(C)C)NC(=O)[C@H](C)N)C(=O)N[C@@H](CC(C)C)C(=O)N[C@@H](CCCCN)C(=O)N[C@@H](CC(N)=O)C(=O)N[C@@H](CC(C)C)C(=O)N[C@@H](CC(C)C)C(=O)N[C@@H](CCCCN)C(=O)N[C@@H](C)C(=O)N[C@@H](C)C(=O)N[C@@H](CC(C)C)C(=O)N[C@@H](CC(N)=O)C(=O)N[C@@H](CCC(=O)O)C(=O)N[C@H](C(=O)N[C@@H](CC(N)=O)C(=O)N[C@@H](CCC(N)=O)C(=O)N[C@H](C(=O)N[C@H](C(=O)N[C@@H](CCC(N)=O)C(N)=O)C(C)C)[C@@H](C)CC)[C@@H](C)CC` [ALWKDILKNLLKAALNEINQIVQ] in this work.

An MIC (Escherichia coli UB1005) of 6.92 µM (≈ 7.99 µg/mL), an MIC [4] of 13.8 µM (≈ 16 µg/mL) and an MIC [5] of 13.8 µM (≈ 16 µg/mL) were found for `CC[C@H](C)[C@H](NC(=O)[C@@H](NC(=O)[C@H](Cc1c[nH]c2ccccc12)NC(=O)[C@@H](NC(=O)[C@@H](N)CCCCN)[C@@H](C)CC)C(C)C)C(=O)N[C@@H](CCCN=C(N)N)C(=O)N[C@@H](Cc1c[nH]c2ccccc12)C(=O)N[C@@H](CCCN=C(N)N)C(N)=O` [KIWVIRWR] in this work. It also gave an MIC [6] of 13.8 µM (≈ 16 µg/mL), an MIC [7] of 26.8 µM (≈ 31 µg/mL) and an MIC [8] of 3.46 µM (≈ 4 µg/mL). It also gave an MIC (Candida albicans) of 13.8 µM (≈ 16 µg/mL).

An MIC [9] of 2 µM (≈ 3.53 µg/mL), an MIC [10] of 4 µM (≈ 7.06 µg/mL) and an MIC [11] of 4 µM (≈ 7.06 µg/mL) were found for `C[C@@H](O)[C@H](NC(=O)[C@H](Cc1c[nH]c2ccccc12)NC(=O)[C@H](Cc1c[nH]c2ccccc12)NC(=O)[C@@H](NC(=O)[C@H](CCCCN)NC(=O)[C@H](Cc1c[nH]c2ccccc12)NC(=O)[C@H](Cc1c[nH]c2ccccc12)NC(=O)[C@@H](NC(=O)[C@H](CCCCN)NC(=O)[C@@H](N)CCCCN)[C@@H](C)O)[C@@H](C)O)C(=O)N[C@@H](CCCCN)C(=O)N[C@@H](Cc1c[nH]c2ccccc12)C(=O)O` [KKTWWKTWWTKW] in this work. The MIC [12] was 4 µM (≈ 7.06 µg/mL), the MIC [13] was 8 µM (≈ 14.1 µg/mL) and the MIC [14] was 4 µM (≈ 7.06 µg/mL).

An MIC [9] of 8.97 µM (≈ 12.5 µg/mL), an MIC [10] of 8.97 µM (≈ 12.5 µg/mL) and an MIC [11] of 4.48 µM (≈ 6.25 µg/mL) were found for `CC[C@H](C)[C@H](NC(=O)[C@H](CCCCN)NC(=O)[C@H](CC(C)C)NC(=O)[C@H](CC(C)C)NC(=O)[C@@H](N)CCCCN)C(=O)N[C@H](C(=O)N[C@H](C(=O)N[C@H](C(=O)N[C@@H](CCCCN)C(=O)N[C@H](C(=O)N[C@@H](CC(C)C)C(=O)N[C@@H](CCCCN)C(N)=O)C(C)C)[C@@H](C)CC)C(C)C)C(C)C` [KLLKIVVIKVLK] in this work. It also gave an MIC [12] of 8.97 µM (≈ 12.5 µg/mL), an MIC [13] of 8.97 µM (≈ 12.5 µg/mL) and an MIC [14] of 8.97 µM (≈ 12.5 µg/mL).

An MIC [4] of 21.4 µM (≈ 32 µg/mL), an MIC [15] of 21.4 µM (≈ 32 µg/mL) and an MIC [7] of no less than 42.8 µM were found for `CC[C@H](C)[C@H](NC(=O)[C@H](CCCN=C(N)N)NC(=O)[C@H](Cc1c[nH]c2ccccc12)NC(=O)[C@H](CCC(N)=O)NC(=O)[C@@H](N)CCCCN)C(=O)N[C@@H](CCCN=C(N)N)C(=O)N[C@H](C(=O)N[C@@H](C)C(=O)N[C@H](C(=O)N[C@H](C(=O)N[C@@H](CCCN=C(N)N)C(=O)N[C@@H](C)C(=O)O)[C@@H](C)CC)C(C)C)C(C)C` [KQWRIRVAVIRA] in this work. For the same compound, the MIC [16] was 85.6 µM (≈ 128 µg/mL).

An MIC [2] of no less than 35 µM and an MIC [3] of 17.5 µM (≈ 32 µg/mL) were found for `CC[C@H](C)[C@H](NC(=O)[C@H](C)NC(=O)[C@H](CC(C)C)NC(=O)[C@@H]1CCCN1C(=O)[C@@H](NC(=O)[C@H](CCSC)NC(=O)CNC(=O)[C@H](CC(C)C)NC(=O)[C@@H](N)CC(C)C)[C@@H](C)CC)C(=O)N[C@@H](CO)C(=O)N[C@@H](C)C(=O)N[C@H](C(=O)N[C@@H](CO)C(=O)N[C@@H](CO)C(=O)N[C@@H](CC(C)C)C(=O)N[C@@H](CO)C(=O)N[C@@H](CCCCN)C(=O)N[C@@H](CC(C)C)C(N)=O)[C@@H](C)CC` [LLGMIPLAISAISSLSKL] in this work.

An MIC (Escherichia coli UB1005) of 4 µM (≈ 6.33 µg/mL), an MIC [4] of 1 µM (≈ 1.58 µg/mL) and an MIC [5] of 2 µM (≈ 3.17 µg/mL) were found for `CC[C@H](C)[C@H](NC(=O)[C@H](CCCN=C(N)N)NC(=O)[C@H](CCCN=C(N)N)NC(=O)[C@H](CC(C)C)NC(=O)[C@@H](N)CCCN=C(N)N)C(=O)N[C@H](C(=O)N[C@H](C(=O)N[C@H](C(=O)N[C@@H](CCCN=C(N)N)C(=O)N[C@H](C(=O)N[C@@H](Cc1ccccc1)C(=O)N[C@@H](CCCN=C(N)N)C(=O)O)C(C)C)[C@@H](C)CC)C(C)C)C(C)C` [RLRRIVVIRVFR] in this work. It also gave an MIC [6] of 8 µM (≈ 12.7 µg/mL), an MIC [7] of 4 µM (≈ 6.33 µg/mL) and an MIC [8] of 0.5 µM (≈ 0.792 µg/mL). The MIC (Candida albicans) was 16 µM (≈ 25.3 µg/mL).

An MIC (Escherichia coli UB1005) of 1.3 µM (≈ 1.69 µg/mL), an MIC [4] of 2.7 µM (≈ 3.51 µg/mL) and an MIC [5] of 5.3 µM (≈ 6.88 µg/mL) were found for `CC[C@H](C)[C@H](NC(=O)[C@@H](NC(=O)[C@@H](NC(=O)[C@H](CCCN=C(N)N)NC(=O)[C@H](CCCN=C(N)N)NC(=O)[C@H](CCC(N)=O)NC(=O)[C@@H](N)CCCN=C(N)N)C(C)C)C(C)C)C(=O)N[C@@H](Cc1c[nH]c2ccccc12)C(=O)N[C@@H](Cc1c[nH]c2ccccc12)C(=O)O` [RQRRVVIWW] in this work. The MIC [6] was 10.7 µM (≈ 13.9 µg/mL), the MIC [7] was 5.3 µM (≈ 6.88 µg/mL) and the MIC [8] was 1.3 µM (≈ 1.69 µg/mL). For the same compound, the MIC (Candida albicans) was 21.4 µM (≈ 27.8 µg/mL).

An MIC [9] of 1.26 µM (≈ 2 µg/mL), an MIC [10] of 1.26 µM (≈ 2 µg/mL) and an MIC (Staphylococcus aureus) of 2.53 µM (≈ 4 µg/mL) were found for `NC(=O)[C@H](CCCN=C(N)N)NC(=O)[C@H](CCCN=C(N)N)NC(=O)[C@H](Cc1c[nH]c2ccccc12)NC(=O)[C@@H]1CCCN1C(=O)[C@H](Cc1c[nH]c2ccccc12)NC(=O)[C@H](Cc1c[nH]c2ccccc12)NC(=O)[C@@H]1CCCN1C(=O)[C@H](Cc1c[nH]c2ccccc12)NC(=O)[C@H](CCCN=C(N)N)NC(=O)[C@@H](N)CCCN=C(N)N` [RRWPWWPWRR] in this work. The MIC [11] was 2.53 µM (≈ 4 µg/mL), the MIC [14] was 1.26 µM (≈ 2 µg/mL) and the MIC (Enterococcus faecium) was 1.79 µM (≈ 2.83 µg/mL).

An MIC (Escherichia coli UB1005) of 1.3 µM (≈ 1.83 µg/mL), an MIC [4] of 1.3 µM (≈ 1.83 µg/mL) and an MIC [5] of 2.7 µM (≈ 3.8 µg/mL) were found for `CC[C@H](C)[C@H](NC(=O)[C@H](CCCN=C(N)N)NC(=O)[C@@H](NC(=O)[C@H](Cc1c[nH]c2ccccc12)NC(=O)[C@H](Cc1c[nH]c2ccccc12)NC(=O)[C@@H](N)CCCN=C(N)N)[C@@H](C)CC)C(=O)N[C@@H](CCCN=C(N)N)C(=O)N[C@@H](Cc1c[nH]c2ccccc12)C(=O)N[C@@H](Cc1cnc[nH]1)C(=O)O` [RWWIRIRWH] in this work. The MIC [6] was 10.7 µM (≈ 15.1 µg/mL), the MIC [7] was 2.7 µM (≈ 3.8 µg/mL) and the MIC [8] was 1.3 µM (≈ 1.83 µg/mL). The MIC (Candida albicans) was 10.7 µM (≈ 15.1 µg/mL).

An MIC [17] of 16 µM (≈ 33.2 µg/mL), an MIC [18] greater than 128 µM and an MIC [15] of 32 µM (≈ 66.4 µg/mL) were found for `NCCCC[C@H](NC(=O)CNC(=O)[C@H](CC(N)=O)NC(=O)[C@H](CCC(=O)O)NC(=O)[C@H](Cc1c[nH]c2ccccc12)NC(=O)[C@H](CCCCN)NC(=O)[C@H](Cc1c[nH]c2ccccc12)NC(=O)[C@H](CCCCN)NC(=O)[C@@H](N)Cc1c[nH]c2ccccc12)C(=O)N[C@@H](Cc1c[nH]c2ccccc12)C(=O)N[C@@H](CCCCN)C(=O)N[C@@H](Cc1c[nH]c2ccccc12)C(=O)N[C@@H](CCC(N)=O)C(=O)N[C@@H](Cc1c[nH]c2ccccc12)C(=O)O` [WKWKWENGKWKWQW] in this work. The MIC [5] was greater than 128 µM, the MIC [19] was no less than 64 µM and the MIC [20] was greater than 128 µM.

An MIC (Escherichia coli UB1005) of 2 µM (≈ 3.51 µg/mL), an MIC (Escherichia coli) of 4 µM (≈ 7.02 µg/mL) and an MIC (Staphylococcus aureus) of 4 µM (≈ 7.02 µg/mL) were found for `CC(C)[C@H](NC(=O)[C@H](CCCN=C(N)N)NC(=O)[C@H](Cc1c[nH]c2ccccc12)NC(=O)[C@H](CCCN=C(N)N)NC(=O)[C@@H](NC(=O)[C@H](CCCCN)NC(=O)[C@H](Cc1c[nH]c2ccccc12)NC(=O)[C@H](CCCN=C(N)N)NC(=O)[C@@H](NC(=O)[C@H](CCCN=C(N)N)NC(=O)[C@@H](N)Cc1c[nH]c2ccccc12)C(C)C)[C@@H](C)O)C(=O)N[C@@H](CCCCN)C(N)=O` [WRVRWKTRWRVK] in this work. It also gave an MIC [18] of 2 µM (≈ 3.51 µg/mL), an MIC [4] of 4 µM (≈ 7.02 µg/mL) and an MIC [15] of 4 µM (≈ 7.02 µg/mL). For the same compound, the MIC [19] was 4 µM (≈ 7.02 µg/mL), the MIC (Pseudomonas aeruginosa) was 32 µM (≈ 56.2 µg/mL) and the MIC [20] was 4 µM (≈ 7.02 µg/mL). The MIC (Acinetobacter baumannii) was 8 µM (≈ 14 µg/mL).
